The values below come from article PMC4522657, “Identification of a DYRK1A Inhibitor that Induces Degradation of the Target Kinase using Co-chaperone CDC37 fused with Luciferase nanoKAZ” (Scientific Reports, 2015).

Experiment [1] has as its target T1, Erk2 (Homo sapiens, UniProt P28482).
T1 construct: purchased Carna Biosciences
Put plainly: Kinase panel, CaNDY 1 µM. To be noted: CaNDY 1 µM relative to DMSO. It counts as biochemical.

Experiment [2] deals with T2, 3xFLAG-DYRK1A (Homo sapiens, UniProt Q13627).
T2 construct: F2A peptide linking to EGFP (2A skipping releases EGFP; a 2A remnant may stay on DYRK1A) (C); expressed in transfected cells; host or cells: 293T cells, transient
Nature of the experiment: Western blot of 3xFLAG-DYRK1A level in transfected 293T cells. It counts as cell-based. To be noted: CaNDY 2 μM, 8 h, compared with DMSO. As for the experimental part:
To investigate whether DYRK1A is a client kinase of the CDC37/HSP90 system, we used a HSP90 inhibitor, ganetespib. 293T cells were transiently transfected with an expression vector of 3xFLAG-tagged DYRK1A (3xFLAG-DYRK1A). At 24 h after transfection, the cells were treated with ganetespib for the indicated time (0–8 h). Total cell lysates were collected and subjected to SDS-PAGE followed by Western blot analysis.
Figure 1 Ganetespib, a HSP90 inhibitor, decreases the DYRK1A protein level. 293T cells were transiently transfected with an expression vector for 3xFLAG-DYRK1A. At 24 h after transfection, the cells were treated with ganetespib (100 nM) and collected 0 and 8 h after treatment. Total cell lysates were subjected to SDS-PAGE followed by Western blot analysis using antibodies against FLAG and GAPDH. In the control group (DMSO), expression of 3xFLAG-DYRK1A increased at 8 h compared to 0 h, and ganetespib suppressed this increase of 3xFLAG-DYRK1A.
(§1) Western blot analysis was performed using the antibodies described above. In brief, total cell lysates were separated by SDS-PAGE (5–20% gels; ATTO, Tokyo, Japan) under reducing conditions and then transferred to a PVDF membrane (PALL, SP, Brazil). Antibody reactions were performed with Can Get Signal® Immunoreaction Enhancer Solution (Toyobo). Peroxidase activities on the membrane were visualized with ECL Western Blotting Detection Reagents (GE Healthcare) or ImmunoStar® LD (Wako Pure Chemical Industries, Osaka, Japan), and a ChemiDoc^TM MP Imaging System (Bio-Rad, Hercules, CA, USA).
On the technique in general: In western blotting, separated proteins are transferred to a membrane and probed.

Experiment [3] concerns the target T3, KIT(V560G) (Homo sapiens, UniProt P10721, V560G).
T3 construct: purchased Carna Biosciences
Put plainly: Kinase panel, CaNDY 1 µM. It counts as biochemical. To be noted: CaNDY 1 µM relative to DMSO.

In experiment [4] the target is T4, PAK6 (Homo sapiens, UniProt Q9NQU5).
T4 construct: purchased Carna Biosciences
Put plainly: Kinase panel, CaNDY 1 µM. It counts as biochemical. To be noted: CaNDY 1 µM relative to DMSO.

Experiment [5] has as its target T5, TYK2 (Homo sapiens, UniProt P29597).
T5 construct: purchased Carna Biosciences
Put plainly: Kinase panel, CaNDY 1 µM. It counts as biochemical. To be noted: CaNDY 1 µM relative to DMSO.

The target of experiment [6] is T6, TRKC (Homo sapiens, UniProt Q16288).
T6 construct: purchased Carna Biosciences
Nature of the experiment: Kinase panel, CaNDY 1 µM. It counts as biochemical. To be noted: CaNDY 1 µM relative to DMSO.

For experiment [7], the target named is T7, MST1 (Homo sapiens, UniProt Q13043).
T7 construct: purchased Carna Biosciences
Put plainly: Kinase panel, CaNDY 1 µM. It counts as biochemical. To be noted: CaNDY 1 µM relative to DMSO.

Experiment [8] concerns other 19 kinases. Put plainly: Western blot of other kinases in HEK293 cells. It counts as cell-based. To be noted: CaNDY 2 μM, 4 days. As for the experimental part: (§2) To check selectivity of CaNDY for other kinases, we first examined protein expression of several kinases in HEK293 cells treated with CaNDY (2 μM) for 4 days. […] Third, protein expression of these kinases targeted by CaNDY (DYRK1A, DYRK1B, CLK1, and Haspin) was reassessed by Western blot analysis as performed in Fig. 7b.
as §1

For experiment [9], the target named is T8, PLK2 (Homo sapiens, UniProt Q9NYY3).
T8 construct: purchased Carna Biosciences
Nature of the experiment: Kinase panel, CaNDY 1 µM. To be noted: CaNDY 1 µM relative to DMSO. In kind it is biochemical.

Experiment [10] addresses DYRK1B (Homo sapiens, UniProt Q9Y463). Put plainly: Western blot of target kinase expression in HEK293 cells. On the set-up: endogenous in cells; host or cells: HEK293. To be noted: CaNDY 2 μM, 4 days. It counts as cell-based. The procedure: as §2, §1
Experiment [11] deals with T9, p70S6K (Homo sapiens, UniProt P23443).
T9 construct: purchased Carna Biosciences
Put plainly: Kinase panel, CaNDY 1 µM. It counts as biochemical. To be noted: CaNDY 1 µM relative to DMSO.

Experiment [12] has as its target T10, FLT1 (Homo sapiens, UniProt P17948).
T10 construct: purchased Carna Biosciences
Nature of the experiment: Kinase panel, CaNDY 1 µM. It counts as biochemical. To be noted: CaNDY 1 µM relative to DMSO.

In experiment [13] the target is T11, PIM1 (Homo sapiens, UniProt P11309).
T11 construct: purchased Carna Biosciences
Nature of the experiment: Kinase panel, CaNDY 1 µM. It counts as biochemical. To be noted: CaNDY 1 µM relative to DMSO.

Experiment [14] deals with T12, CRIK (Homo sapiens, UniProt O14578).
T12 construct: purchased Carna Biosciences
Put plainly: Kinase panel, CaNDY 1 µM. In kind it is biochemical. To be noted: CaNDY 1 µM relative to DMSO.

Experiment [15] addresses T13, GSK3α (Homo sapiens, UniProt P49840).
T13 construct: purchased Carna Biosciences
Nature of the experiment: Kinase panel, CaNDY 1 µM. It counts as biochemical. To be noted: CaNDY 1 µM relative to DMSO.

Experiment [16] deals with T14, TIE2 (Homo sapiens, UniProt Q02763).
T14 construct: purchased Carna Biosciences
Put plainly: Kinase panel, CaNDY 1 µM. It counts as biochemical. To be noted: CaNDY 1 µM relative to DMSO.

The test system of experiment [17] is mRNA coding for DYRK1A. Put plainly: Reverse transcription and quantitative PCR in HEK293 cells. It counts as cell-based. To be noted: CaNDY 2 µM, four days. As for the experimental part: Total RNA of the cells was isolated using Sepasol-RNA I Super G (Nacalai Tesque), and then subjected to reverse transcription with Prime Script RTase (Takara Bio). Realtime PCR was performed with FastStart Universal SYBR Green Master (Rox) (Roche Diagnostics, Basel, Switzerland) using StepOnePlus Real-Time PCR System (Applied Biosystems, Life technologies). The nucleotide sequences of the primers are as follows: the forward primer for DYRK1A, 5′-[…]-3′; the reverse primer for DYRK1A, 5′-[…]-3′; the forward primer for GAPDH, 5′-[…]-3′; and the reverse primer for GAPDH, 5′-[…]-3′.
Targeting the DYRK1A/CDC37 complex
Figure S6. Expression of endogenous DYRK1A mRNA in HEK293 cells treated with
HEK293 cells were cultured in the presence of CaNDY (2 µM) for four days, and subjected to
reverse transcription followed by quantitative PCR analysis. Bar graphs show means ± SD (n =
(1 picture or pasted object on this page, not shown here)

For experiment [18], the target named is T15, MAP3K2_Cascade (Homo sapiens, UniProt Q9Y2U5).
T15 construct: purchased Carna Biosciences
Put plainly: Kinase panel, CaNDY 1 µM. It counts as biochemical. To be noted: CaNDY 1 µM relative to DMSO.

The target in experiment [19] is T16, EGFR(T790M) (Homo sapiens, UniProt P00533, T790M).
T16 construct: purchased Carna Biosciences
Put plainly: Kinase panel, CaNDY 1 µM. To be noted: CaNDY 1 µM relative to DMSO. In kind it is biochemical.

The target of experiment [20] is T17, FYN (Homo sapiens, UniProt P06241).
T17 construct: purchased Carna Biosciences
Nature of the experiment: Kinase panel, CaNDY 1 µM. It counts as biochemical. To be noted: CaNDY 1 µM relative to DMSO.

Experiment [21] deals with T18, EGFR(T790M/L858R) (Homo sapiens, UniProt P00533, L858R/T790M).
T18 construct: purchased Carna Biosciences
Put plainly: Kinase panel, CaNDY 1 µM. In kind it is biochemical. To be noted: CaNDY 1 µM relative to DMSO.

Experiment [22] addresses T19, RAF1_Cascade (Homo sapiens, UniProt P04049).
T19 construct: purchased Carna Biosciences
Nature of the experiment: Kinase panel, CaNDY 1 µM. In kind it is biochemical. To be noted: CaNDY 1 µM relative to DMSO.

Experiment [23] addresses T20, TNK1 (Homo sapiens, UniProt Q13470).
T20 construct: purchased Carna Biosciences
Nature of the experiment: Kinase panel, CaNDY 1 µM. In kind it is biochemical. To be noted: CaNDY 1 µM relative to DMSO.

T7 sequence (Q13043 whole entry): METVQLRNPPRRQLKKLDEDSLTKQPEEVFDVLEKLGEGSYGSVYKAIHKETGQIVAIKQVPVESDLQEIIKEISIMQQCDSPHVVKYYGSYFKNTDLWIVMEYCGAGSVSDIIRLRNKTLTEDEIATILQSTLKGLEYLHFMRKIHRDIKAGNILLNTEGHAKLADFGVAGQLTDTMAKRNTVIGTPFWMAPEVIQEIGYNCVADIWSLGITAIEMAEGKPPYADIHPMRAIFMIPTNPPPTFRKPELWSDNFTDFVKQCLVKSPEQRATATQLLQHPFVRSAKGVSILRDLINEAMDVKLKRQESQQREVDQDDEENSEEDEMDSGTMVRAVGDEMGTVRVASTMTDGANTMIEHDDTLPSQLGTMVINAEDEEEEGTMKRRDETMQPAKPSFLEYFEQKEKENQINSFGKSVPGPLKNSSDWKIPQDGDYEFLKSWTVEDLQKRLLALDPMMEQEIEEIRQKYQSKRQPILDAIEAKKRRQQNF
T8 sequence (Q9NYY3 whole entry): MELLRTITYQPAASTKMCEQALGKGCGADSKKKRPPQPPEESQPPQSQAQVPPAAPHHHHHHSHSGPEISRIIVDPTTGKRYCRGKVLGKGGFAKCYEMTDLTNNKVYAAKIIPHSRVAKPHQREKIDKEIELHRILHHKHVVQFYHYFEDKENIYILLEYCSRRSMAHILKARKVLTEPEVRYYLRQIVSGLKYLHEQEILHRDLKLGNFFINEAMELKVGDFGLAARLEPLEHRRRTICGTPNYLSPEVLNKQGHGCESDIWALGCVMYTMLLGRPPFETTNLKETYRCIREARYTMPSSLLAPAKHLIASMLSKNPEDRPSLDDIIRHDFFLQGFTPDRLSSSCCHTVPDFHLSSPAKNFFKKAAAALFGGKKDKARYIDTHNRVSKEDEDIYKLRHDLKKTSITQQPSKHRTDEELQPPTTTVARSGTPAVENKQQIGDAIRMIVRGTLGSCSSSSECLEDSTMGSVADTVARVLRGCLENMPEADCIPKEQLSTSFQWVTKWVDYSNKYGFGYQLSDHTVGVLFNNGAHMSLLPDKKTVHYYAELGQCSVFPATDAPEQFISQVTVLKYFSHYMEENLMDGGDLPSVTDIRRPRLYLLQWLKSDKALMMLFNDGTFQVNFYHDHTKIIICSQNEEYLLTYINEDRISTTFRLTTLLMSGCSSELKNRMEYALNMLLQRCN
T12 sequence (O14578 whole entry): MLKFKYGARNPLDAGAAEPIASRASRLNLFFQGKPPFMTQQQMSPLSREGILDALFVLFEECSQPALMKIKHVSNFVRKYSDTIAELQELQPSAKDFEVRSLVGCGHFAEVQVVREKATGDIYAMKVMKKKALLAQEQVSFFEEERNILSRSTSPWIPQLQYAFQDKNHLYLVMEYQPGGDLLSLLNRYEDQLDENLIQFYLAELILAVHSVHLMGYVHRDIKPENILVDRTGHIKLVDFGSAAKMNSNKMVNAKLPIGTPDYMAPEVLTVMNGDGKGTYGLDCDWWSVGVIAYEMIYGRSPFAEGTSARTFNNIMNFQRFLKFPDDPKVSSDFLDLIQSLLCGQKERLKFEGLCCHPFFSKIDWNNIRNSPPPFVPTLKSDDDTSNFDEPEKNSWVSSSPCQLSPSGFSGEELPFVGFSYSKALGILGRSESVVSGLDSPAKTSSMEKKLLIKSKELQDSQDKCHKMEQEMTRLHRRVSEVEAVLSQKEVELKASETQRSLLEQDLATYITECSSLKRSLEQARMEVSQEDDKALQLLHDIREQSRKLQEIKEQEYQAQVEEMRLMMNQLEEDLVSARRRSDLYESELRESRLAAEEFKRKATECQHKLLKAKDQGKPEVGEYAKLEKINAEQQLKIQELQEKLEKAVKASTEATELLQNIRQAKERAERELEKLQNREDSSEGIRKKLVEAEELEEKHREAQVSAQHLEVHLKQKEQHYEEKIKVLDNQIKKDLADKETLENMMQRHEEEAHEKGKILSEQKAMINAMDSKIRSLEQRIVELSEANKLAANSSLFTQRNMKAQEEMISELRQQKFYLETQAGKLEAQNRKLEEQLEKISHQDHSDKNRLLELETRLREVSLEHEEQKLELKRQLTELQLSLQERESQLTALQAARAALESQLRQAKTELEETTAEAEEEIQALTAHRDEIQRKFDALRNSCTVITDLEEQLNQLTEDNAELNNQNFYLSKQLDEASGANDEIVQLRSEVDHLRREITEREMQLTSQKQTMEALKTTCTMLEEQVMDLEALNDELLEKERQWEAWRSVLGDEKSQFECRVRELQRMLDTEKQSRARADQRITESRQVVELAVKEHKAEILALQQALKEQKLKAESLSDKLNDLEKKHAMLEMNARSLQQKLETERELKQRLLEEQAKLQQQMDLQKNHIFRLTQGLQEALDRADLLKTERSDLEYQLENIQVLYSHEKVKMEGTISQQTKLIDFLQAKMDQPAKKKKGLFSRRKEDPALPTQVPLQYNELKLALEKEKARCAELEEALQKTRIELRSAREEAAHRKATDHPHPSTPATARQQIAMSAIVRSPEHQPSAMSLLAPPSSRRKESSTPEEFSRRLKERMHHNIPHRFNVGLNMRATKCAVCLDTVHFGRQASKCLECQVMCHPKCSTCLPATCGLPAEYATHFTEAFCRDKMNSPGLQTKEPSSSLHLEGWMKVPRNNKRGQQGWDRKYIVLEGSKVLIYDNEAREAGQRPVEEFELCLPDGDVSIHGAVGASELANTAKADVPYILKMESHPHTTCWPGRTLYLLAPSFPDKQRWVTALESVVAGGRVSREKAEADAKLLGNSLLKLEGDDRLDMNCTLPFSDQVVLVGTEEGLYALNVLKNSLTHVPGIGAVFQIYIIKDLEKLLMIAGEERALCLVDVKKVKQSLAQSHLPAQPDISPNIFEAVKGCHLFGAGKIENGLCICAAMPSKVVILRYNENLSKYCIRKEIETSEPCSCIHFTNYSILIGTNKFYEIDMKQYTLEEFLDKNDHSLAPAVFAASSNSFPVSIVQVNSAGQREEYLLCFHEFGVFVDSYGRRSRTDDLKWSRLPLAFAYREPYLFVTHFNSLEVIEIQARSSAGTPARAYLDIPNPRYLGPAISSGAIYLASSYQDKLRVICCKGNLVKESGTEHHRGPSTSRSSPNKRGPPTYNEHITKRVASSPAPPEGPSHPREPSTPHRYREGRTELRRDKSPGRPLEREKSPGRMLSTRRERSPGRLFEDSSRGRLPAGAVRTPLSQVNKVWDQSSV
T17 sequence (P06241 whole entry): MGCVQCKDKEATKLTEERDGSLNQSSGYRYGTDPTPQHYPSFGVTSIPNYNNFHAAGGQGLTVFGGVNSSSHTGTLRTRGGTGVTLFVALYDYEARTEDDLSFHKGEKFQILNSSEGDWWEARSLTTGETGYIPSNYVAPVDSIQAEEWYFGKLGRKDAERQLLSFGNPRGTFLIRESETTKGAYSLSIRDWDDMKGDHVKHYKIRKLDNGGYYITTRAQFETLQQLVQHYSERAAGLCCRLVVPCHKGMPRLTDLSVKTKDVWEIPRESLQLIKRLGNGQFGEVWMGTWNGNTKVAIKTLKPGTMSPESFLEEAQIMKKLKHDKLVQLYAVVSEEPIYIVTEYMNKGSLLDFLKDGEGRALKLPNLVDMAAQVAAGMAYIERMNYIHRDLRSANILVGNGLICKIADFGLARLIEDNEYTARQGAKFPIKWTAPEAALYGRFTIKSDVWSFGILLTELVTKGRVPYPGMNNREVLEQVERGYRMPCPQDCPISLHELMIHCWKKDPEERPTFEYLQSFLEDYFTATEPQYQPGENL
T15 sequence (Q9Y2U5 whole entry): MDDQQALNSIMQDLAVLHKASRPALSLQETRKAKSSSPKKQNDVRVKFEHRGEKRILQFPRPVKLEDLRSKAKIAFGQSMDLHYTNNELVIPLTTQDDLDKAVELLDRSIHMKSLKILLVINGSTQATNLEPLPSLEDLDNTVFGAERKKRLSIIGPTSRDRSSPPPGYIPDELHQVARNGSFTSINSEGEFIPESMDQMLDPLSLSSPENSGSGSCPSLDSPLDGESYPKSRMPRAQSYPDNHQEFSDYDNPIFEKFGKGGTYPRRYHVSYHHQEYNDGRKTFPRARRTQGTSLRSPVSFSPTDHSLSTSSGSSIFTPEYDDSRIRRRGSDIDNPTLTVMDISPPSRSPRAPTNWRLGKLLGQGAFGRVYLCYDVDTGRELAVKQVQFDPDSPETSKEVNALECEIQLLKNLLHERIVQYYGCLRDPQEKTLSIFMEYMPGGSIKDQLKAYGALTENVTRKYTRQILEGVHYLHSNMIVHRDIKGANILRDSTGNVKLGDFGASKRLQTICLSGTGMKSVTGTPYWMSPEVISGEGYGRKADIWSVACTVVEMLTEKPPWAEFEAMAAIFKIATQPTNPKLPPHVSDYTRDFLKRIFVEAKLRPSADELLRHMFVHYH
T13 sequence (P49840 whole entry): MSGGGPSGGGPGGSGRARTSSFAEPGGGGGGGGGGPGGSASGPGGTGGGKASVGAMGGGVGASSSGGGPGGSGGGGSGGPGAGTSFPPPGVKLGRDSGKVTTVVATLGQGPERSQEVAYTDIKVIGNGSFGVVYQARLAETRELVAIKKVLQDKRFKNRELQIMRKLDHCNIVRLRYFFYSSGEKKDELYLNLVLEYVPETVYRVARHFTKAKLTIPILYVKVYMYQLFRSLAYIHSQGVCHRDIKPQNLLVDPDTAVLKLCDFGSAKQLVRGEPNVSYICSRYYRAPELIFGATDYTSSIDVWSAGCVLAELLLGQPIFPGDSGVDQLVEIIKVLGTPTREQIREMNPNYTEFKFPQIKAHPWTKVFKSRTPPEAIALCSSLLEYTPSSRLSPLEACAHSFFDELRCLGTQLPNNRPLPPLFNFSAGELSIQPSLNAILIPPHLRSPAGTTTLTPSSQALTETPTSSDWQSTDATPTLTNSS

A word on the remaining activity: it is the signal under treatment as a percentage of the control signal. With `[H]/N=C1/NC(=O)C(=Cc2ccc3c(c2)CCO3)S1` [CaNDY, (Z)-5-[(2,3-dihydrobenzofuran-5-yl)methylene]-2-iminothiazolidin-4-one], the remaining activity at 1 µM in experiment [1] was 97.6%; in experiment [3], 101%; in experiment [4] it was 101%; in experiment [6] it was 101%; in experiment [11] it was 89.7%; in experiment [12], 102%. For the same compound, the remaining activity at 1 µM in [13] is 36.5%; in experiment [15], 76.6%; in experiment [16] it was 101%; in [18], 102%; in experiment [20] it was 102%; in [22], 82.3%. For the same compound, the remaining activity at 1 µM in [23] worked out at 99.7%. Further, in experiment [2], the 3xFLAG-DYRK1A level result is on record as “decreased the 3xFLAG-DYRK1A level”. The “%Activity” value in experiment [5] is given as 97.4%; in experiment [7], 101.2%; in experiment [9], 95.9%; in experiment [14], 87.0%; in experiment [19] it was 107.5%; in experiment [21], 106.6%. Moreover, in [8], the “protein expression of other kinases” value is on record as “did not decrease the other 19 kinases”. Further, the “protein expression of DYRK1B” value in experiment [10] is “decreased expression”. For the same compound, the “expression of mRNA coding for DYRK1A” value in experiment [17] was “slightly decreased”.
